{"source": "paper PMC9629815", "about": "“MK256 is a novel CDK8 inhibitor with potent antitumor activity in AML through downregulation of the STAT pathway” (Oncotarget, 2022)", "key": {"CDK2/cyclin A": {"target": "CDK2/cyclin A (Homo sapiens, UniProt P24941)", "experiment": "CDK panel kinase inhibition", "format": "biochemical", "details": "read-out: Percentage of inhibition (%)", "text": "(§1) MK256 was synthesized in house. The kinase profiling of MK256 against various targets was done using the SelectScreen Kinase Profiling Services provided by ThermoFisher Scientific (Walham WA, USA). https://www.thermofisher.com/us/en/home/products-and-services/services/custom-services/screening-and-profiling-services/selectscreen-profiling-service/selectscreen-kinase-profiling-service.html."}, "CDK4/cyclin D1": {"target": "CDK4/cyclin D1 (Homo sapiens, UniProt P11802)", "experiment": "CDK panel kinase inhibition", "format": "biochemical", "details": "read-out: Percentage of inhibition (%)", "text": "as §1"}, "CDK16 (PCTK1)/cyclin Y": {"target": "CDK16 (PCTK1)/cyclin Y (Homo sapiens, UniProt Q00536)", "experiment": "CDK panel kinase inhibition", "format": "biochemical", "details": "read-out: Percentage of inhibition (%)", "text": "as §1"}, "CDK3/cyclin E1": {"target": "CDK3/cyclin E1 (Homo sapiens, UniProt Q00526)", "experiment": "CDK panel kinase inhibition", "format": "biochemical", "details": "read-out: Percentage of inhibition (%)", "text": "as §1"}, "CDK13/cyclin K": {"target": "CDK13/cyclin K (Homo sapiens, UniProt Q14004)", "sequence (Q14004 whole entry)": "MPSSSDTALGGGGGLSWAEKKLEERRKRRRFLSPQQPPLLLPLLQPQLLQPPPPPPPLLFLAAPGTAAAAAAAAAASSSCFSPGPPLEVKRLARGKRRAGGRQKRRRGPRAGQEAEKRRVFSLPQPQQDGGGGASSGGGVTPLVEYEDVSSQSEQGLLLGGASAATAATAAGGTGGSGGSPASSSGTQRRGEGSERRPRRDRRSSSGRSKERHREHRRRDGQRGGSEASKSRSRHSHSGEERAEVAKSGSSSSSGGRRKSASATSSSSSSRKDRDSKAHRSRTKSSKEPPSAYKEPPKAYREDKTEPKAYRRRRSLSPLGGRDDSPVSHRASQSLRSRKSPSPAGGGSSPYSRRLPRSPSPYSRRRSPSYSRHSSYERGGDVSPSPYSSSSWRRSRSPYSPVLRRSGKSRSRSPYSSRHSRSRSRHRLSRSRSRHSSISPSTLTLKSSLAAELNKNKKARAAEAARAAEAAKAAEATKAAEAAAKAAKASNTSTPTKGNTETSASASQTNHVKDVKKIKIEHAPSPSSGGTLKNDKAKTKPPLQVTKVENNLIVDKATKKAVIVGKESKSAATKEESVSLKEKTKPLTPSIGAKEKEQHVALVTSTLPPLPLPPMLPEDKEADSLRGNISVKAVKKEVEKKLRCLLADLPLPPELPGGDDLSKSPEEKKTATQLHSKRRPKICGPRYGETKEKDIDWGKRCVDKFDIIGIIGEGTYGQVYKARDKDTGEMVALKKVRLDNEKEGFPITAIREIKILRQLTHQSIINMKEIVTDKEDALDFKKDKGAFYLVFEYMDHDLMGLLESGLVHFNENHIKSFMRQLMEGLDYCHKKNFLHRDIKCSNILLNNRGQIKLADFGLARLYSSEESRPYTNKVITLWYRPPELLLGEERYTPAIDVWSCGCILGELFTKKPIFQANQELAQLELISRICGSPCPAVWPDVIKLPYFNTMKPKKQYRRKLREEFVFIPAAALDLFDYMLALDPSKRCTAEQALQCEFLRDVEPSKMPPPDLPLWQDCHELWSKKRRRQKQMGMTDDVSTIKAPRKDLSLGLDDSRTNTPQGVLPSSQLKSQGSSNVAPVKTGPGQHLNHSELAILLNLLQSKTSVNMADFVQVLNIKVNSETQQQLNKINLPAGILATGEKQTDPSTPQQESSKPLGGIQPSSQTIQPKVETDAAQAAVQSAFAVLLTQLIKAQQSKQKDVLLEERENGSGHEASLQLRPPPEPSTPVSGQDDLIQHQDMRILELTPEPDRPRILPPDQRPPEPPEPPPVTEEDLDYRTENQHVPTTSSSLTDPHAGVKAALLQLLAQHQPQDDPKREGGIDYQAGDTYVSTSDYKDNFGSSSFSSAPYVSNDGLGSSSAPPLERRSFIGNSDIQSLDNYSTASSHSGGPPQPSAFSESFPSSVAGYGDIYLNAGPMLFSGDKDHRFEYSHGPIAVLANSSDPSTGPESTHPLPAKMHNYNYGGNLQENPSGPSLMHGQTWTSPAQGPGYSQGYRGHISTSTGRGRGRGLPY", "sequence (O75909 whole entry partner)": "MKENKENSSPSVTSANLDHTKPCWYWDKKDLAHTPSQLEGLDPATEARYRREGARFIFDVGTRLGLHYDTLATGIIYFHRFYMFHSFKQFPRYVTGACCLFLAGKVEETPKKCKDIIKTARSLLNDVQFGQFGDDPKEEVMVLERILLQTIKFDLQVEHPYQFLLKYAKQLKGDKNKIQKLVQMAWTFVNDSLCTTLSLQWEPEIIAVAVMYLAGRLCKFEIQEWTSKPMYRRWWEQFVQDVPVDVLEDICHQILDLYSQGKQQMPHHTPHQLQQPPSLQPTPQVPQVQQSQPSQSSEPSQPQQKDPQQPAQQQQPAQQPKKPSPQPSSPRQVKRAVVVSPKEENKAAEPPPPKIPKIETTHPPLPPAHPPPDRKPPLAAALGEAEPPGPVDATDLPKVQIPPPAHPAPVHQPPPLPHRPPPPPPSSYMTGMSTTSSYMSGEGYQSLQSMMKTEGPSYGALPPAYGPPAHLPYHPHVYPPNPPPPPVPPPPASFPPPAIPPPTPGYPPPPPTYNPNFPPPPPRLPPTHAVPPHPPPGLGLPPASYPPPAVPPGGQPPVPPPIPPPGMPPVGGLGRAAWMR", "experiment": "CDK panel kinase inhibition", "format": "biochemical", "details": "read-out: Percentage of inhibition (%)", "text": "as §1"}, "CDK9/cyclin K": {"target": "CDK9/cyclin K (Homo sapiens, UniProt P50750)", "sequence (P50750 whole entry)": "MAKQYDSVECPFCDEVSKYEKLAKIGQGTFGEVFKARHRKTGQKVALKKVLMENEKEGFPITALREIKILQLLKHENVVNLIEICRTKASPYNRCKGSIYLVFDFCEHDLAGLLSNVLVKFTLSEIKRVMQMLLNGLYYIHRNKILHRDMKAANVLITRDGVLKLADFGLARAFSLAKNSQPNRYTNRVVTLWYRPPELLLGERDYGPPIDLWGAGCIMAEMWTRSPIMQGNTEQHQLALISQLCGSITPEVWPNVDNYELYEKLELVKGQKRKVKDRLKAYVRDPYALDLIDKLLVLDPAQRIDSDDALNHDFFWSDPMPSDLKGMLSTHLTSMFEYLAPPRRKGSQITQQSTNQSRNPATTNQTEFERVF", "sequence (O75909 whole entry partner)": "as the sequence (O75909 whole entry partner) above", "experiment": "CDK panel kinase inhibition", "format": "biochemical", "details": "read-out: Percentage of inhibition (%)", "text": "as §1"}, "CDK18/cyclin Y": {"target": "CDK18/cyclin Y (Homo sapiens, UniProt Q07002)", "sequence (Q07002 whole entry)": "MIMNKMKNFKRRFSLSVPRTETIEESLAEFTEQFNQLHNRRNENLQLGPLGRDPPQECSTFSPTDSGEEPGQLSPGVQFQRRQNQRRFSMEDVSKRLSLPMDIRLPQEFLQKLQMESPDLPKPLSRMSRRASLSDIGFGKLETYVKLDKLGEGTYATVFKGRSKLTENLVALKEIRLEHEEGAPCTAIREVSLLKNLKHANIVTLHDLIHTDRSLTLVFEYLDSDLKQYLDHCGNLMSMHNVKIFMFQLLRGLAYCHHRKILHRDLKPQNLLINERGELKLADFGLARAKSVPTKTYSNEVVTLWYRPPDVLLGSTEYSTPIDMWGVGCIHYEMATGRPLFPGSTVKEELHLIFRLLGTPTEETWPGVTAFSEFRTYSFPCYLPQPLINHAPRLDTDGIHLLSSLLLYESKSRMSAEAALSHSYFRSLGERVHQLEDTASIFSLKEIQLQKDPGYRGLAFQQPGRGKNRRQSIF", "sequence (Q8ND76 whole entry partner)": "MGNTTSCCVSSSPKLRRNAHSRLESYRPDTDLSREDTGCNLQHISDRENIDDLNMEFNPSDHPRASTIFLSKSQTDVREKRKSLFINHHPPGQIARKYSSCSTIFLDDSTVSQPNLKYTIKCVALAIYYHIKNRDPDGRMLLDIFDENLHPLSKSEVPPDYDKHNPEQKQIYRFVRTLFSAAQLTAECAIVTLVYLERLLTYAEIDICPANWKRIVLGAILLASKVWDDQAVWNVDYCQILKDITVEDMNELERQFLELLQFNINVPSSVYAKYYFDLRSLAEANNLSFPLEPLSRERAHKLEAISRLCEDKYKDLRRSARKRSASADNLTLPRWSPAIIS", "experiment": "CDK panel kinase inhibition", "format": "biochemical", "details": "read-out: Percentage of inhibition (%)", "text": "as §1"}, "CDK5 (Inactive)": {"target": "CDK5 (Inactive) (Homo sapiens, UniProt Q00535)", "experiment": "CDK panel kinase inhibition", "format": "biochemical", "details": "read-out: Percentage of inhibition (%)", "text": "as §1"}, "CDK1/cyclin B": {"target": "CDK1/cyclin B (Homo sapiens, UniProt P06493)", "experiment": "CDK panel kinase inhibition", "format": "biochemical", "details": "read-out: Percentage of inhibition (%)", "text": "as §1"}, "CDK9/cyclin T1": {"target": "CDK9/cyclin T1 (Homo sapiens, UniProt P50750)", "experiment": "CDK panel kinase inhibition", "format": "biochemical", "details": "read-out: Percentage of inhibition (%)", "text": "as §1"}, "CDK4/cyclin D3": {"target": "CDK4/cyclin D3 (Homo sapiens, UniProt P11802)", "experiment": "CDK panel kinase inhibition", "format": "biochemical", "details": "read-out: Percentage of inhibition (%)", "text": "as §1"}, "CDK17/cyclin Y": {"target": "CDK17/cyclin Y (Homo sapiens, UniProt Q00537)", "experiment": "CDK panel kinase inhibition", "format": "biochemical", "details": "read-out: Percentage of inhibition (%)", "text": "as §1"}, "CDK2/cyclin E1": {"target": "CDK2/cyclin E1 (Homo sapiens, UniProt P24941)", "experiment": "CDK panel kinase inhibition", "format": "biochemical", "details": "read-out: Percentage of inhibition (%)", "text": "as §1"}, "CDK5/p35": {"target": "CDK5/p35 (Homo sapiens, UniProt Q00535)", "experiment": "CDK panel kinase inhibition", "format": "biochemical", "details": "read-out: Percentage of inhibition (%)", "text": "as §1"}, "CDK5/p25": {"target": "CDK5/p25 (Homo sapiens, UniProt Q00535)", "experiment": "CDK panel kinase inhibition", "format": "biochemical", "details": "read-out: Percentage of inhibition (%)", "text": "as §1"}, "CDK7/cyclin H/MNAT1": {"target": "CDK7/cyclin H/MNAT1 (Homo sapiens, UniProt P50613)", "sequence (P50613 whole entry)": "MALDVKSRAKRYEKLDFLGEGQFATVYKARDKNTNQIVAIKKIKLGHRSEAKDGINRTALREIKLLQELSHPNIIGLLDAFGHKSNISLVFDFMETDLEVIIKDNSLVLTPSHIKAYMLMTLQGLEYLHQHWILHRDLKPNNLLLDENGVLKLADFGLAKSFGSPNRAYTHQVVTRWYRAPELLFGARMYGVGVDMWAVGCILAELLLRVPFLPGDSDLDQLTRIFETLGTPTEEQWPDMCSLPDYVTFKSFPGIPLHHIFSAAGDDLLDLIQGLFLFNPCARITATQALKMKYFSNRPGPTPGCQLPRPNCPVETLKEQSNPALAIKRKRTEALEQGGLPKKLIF", "sequence (P51946 whole entry partner)": "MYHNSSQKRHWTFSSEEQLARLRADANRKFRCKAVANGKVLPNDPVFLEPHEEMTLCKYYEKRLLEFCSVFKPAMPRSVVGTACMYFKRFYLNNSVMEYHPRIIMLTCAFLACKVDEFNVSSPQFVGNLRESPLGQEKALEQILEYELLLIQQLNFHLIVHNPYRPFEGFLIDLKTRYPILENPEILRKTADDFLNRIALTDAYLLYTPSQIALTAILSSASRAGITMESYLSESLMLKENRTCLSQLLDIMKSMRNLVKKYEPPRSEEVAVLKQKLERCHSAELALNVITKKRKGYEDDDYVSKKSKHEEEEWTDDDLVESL", "sequence (P51948 whole entry partner)": "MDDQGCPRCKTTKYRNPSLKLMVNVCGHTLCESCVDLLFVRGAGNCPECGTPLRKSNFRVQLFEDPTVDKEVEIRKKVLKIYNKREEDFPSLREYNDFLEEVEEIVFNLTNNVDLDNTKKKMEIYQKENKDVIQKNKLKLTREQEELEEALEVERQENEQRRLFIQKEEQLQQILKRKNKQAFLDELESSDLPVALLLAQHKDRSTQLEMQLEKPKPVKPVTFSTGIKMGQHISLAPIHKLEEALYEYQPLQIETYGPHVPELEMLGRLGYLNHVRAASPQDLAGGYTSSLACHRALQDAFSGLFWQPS", "experiment": "CDK panel kinase inhibition", "format": "biochemical", "details": "read-out: Percentage of inhibition (%)", "text": "as §1"}, "CDK6/cyclin D1": {"target": "CDK6/cyclin D1 (Homo sapiens, UniProt Q00534)", "sequence (Q00534 whole entry)": "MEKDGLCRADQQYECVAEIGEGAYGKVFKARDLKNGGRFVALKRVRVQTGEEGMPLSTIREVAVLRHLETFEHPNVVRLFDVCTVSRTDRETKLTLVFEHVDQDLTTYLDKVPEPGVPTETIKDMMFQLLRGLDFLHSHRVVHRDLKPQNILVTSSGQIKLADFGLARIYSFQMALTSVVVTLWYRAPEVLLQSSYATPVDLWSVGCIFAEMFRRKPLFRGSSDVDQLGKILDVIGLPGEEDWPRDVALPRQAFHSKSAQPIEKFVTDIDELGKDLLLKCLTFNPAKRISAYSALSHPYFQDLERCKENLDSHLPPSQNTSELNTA", "sequence (P24385 whole entry partner)": "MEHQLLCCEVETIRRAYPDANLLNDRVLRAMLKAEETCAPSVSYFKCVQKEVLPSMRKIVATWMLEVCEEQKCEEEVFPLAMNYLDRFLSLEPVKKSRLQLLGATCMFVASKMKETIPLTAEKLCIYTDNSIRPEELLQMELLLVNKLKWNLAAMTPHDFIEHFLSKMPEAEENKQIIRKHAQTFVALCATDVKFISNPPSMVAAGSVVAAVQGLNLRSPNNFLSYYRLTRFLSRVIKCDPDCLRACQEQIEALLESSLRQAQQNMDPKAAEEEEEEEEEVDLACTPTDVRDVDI", "experiment": "CDK panel kinase inhibition", "format": "biochemical", "details": "read-out: Percentage of inhibition (%)", "text": "as §1"}, "CDK14 (PFTK1)/cyclin Y": {"target": "CDK14 (PFTK1)/cyclin Y (Homo sapiens, UniProt O94921)", "experiment": "CDK panel kinase inhibition", "format": "biochemical", "details": "read-out: Percentage of inhibition (%)", "text": "as §1"}, "[1]": {"tested_on": "p-STATs, MCL-1, BCL-2, cleaved Parp, cleaved Caspase 3 in MOLM-14 cells", "experiment": "Western blot of STAT pathway and apoptosis markers in MOLM-14 cells", "format": "cell-based", "set-up": "targeted p-STATs and MCL-1 levels / expression of BCL-2: dose or concentration left out as unconfirmed", "description": "For the in vitro western blot study, MV-4-11 and MOLM-14 cells were plated (6-well) at 5 × 10^5 cells per well with medium containing 1% FBS overnight. MK-256 was added in different concentrations at different time points. […] Total protein concentration was measured using the Pierce BCA protein Assay Kit (23227, Thermo Fisher Scientific). Proteins were separated on SDS-PAGE and transferred to Nitrocellulose membrane."}, "[2]": {"tested_on": "p-STAT1 (S727), p-STAT3(S727), p-STAT5(S726) in MOLM-14 xenograft tumors", "experiment": "Pharmacodynamics study in MOLM-14 xenograft model (western blot of tumors)", "format": "in vivo, mice", "details": "10, 50 and 100 mg/kg oral, 6 hrs; with higher doses", "description": "For the in vivo western blot study, to assess gene expression in vivo, tumors were induced in female NOD SCID mice by s.c. inoculation of 5 × 10^6 AML cells suspended in matrigel. Mice bearing tumors of at least 100 mm^3 were treated with MK256. Mice were sacrificed after 6 hrs and tumors were harvested. The tumors were homogenized and lysed in T-per Mammalian Protein Extraction Reagent (78510, Thermo Fisher Scientific) containing protease and phosphatase inhibitors (88669, Thermo Fisher Scientific). Total protein concentration was measured using the Pierce BCA protein Assay Kit (23227, Thermo Fisher Scientific). Proteins were separated on SDS-PAGE and transferred to Nitrocellulose membrane. Immunoblotting was performed using specific antibodies. The following specific antibodies were used: Cell signaling technology: pSTAT1(S727) #8826, pSTAT1(Y701) #9167, STAT1 #14994, pSTAT3 (S727) #9134, pSTAT3(Y705) #9145, STAT3 #9139, pSTAT5(Y694) #4322, STAT5 #25656, b-ACTIN #3700, GAPDH #5174, BCL2 #4223, MCL-1 #94296, Cleaved PARP #9541, Cleaved Caspase3 #9661, IL6ST #12859, SmyD3 #3732, PD-L1 #13684. Invitrogen: IL6R PA5109855. Abcam: pSTAT5(S726) ab128896."}, "CYR2C8": {"target": "CYR2C8 (Homo sapiens, UniProt P10632)", "experiment": "Cytochrome P450 inhibition assay", "format": "in vitro ADME", "details": "50 uM"}, "CYP3A4-TS": {"target": "CYP3A4-TS (Homo sapiens, UniProt P08684)", "experiment": "Cytochrome P450 inhibition assay", "format": "in vitro ADME", "details": "50 uM"}}}
{"smiles": "Nc1nccc2c(Br)cc3cc(C(=O)O)ccc3c12", "note": "[MK256]", "values": [{"measurement": "inhibition at 0.2 µM", "setting": "CDK2/cyclin A; 200 nM", "result": 7, "unit": "%"}, {"measurement": "inhibition at 10 µM", "setting": "CDK2/cyclin A; 10 μM", "result": 85, "unit": "%"}, {"measurement": "inhibition at 0.2 µM", "setting": "CDK4/cyclin D1; 200 nM", "result": 2, "unit": "%"}, {"measurement": "inhibition at 10 µM", "setting": "CDK4/cyclin D1; 10 μM", "result": 23, "unit": "%"}, {"measurement": "inhibition at 0.2 µM", "setting": "CDK16 (PCTK1)/cyclin Y; 200 nM", "result": 1, "unit": "%"}, {"measurement": "inhibition at 10 µM", "setting": "CDK16 (PCTK1)/cyclin Y; 10 μM", "result": 67, "unit": "%"}, {"measurement": "inhibition at 0.2 µM", "setting": "CDK3/cyclin E1; 200 nM", "result": 4, "unit": "%"}, {"measurement": "inhibition at 10 µM", "setting": "CDK3/cyclin E1; 10 μM", "result": 82, "unit": "%"}, {"measurement": "inhibition at 0.2 µM", "setting": "CDK13/cyclin K; 200 nM", "result": 27, "unit": "%"}, {"measurement": "inhibition at 10 µM", "setting": "CDK13/cyclin K; 10 μM", "result": 95, "unit": "%"}, {"measurement": "inhibition at 0.2 µM", "setting": "CDK9/cyclin K; 200 nM", "result": 76, "unit": "%"}, {"measurement": "inhibition at 10 µM", "setting": "CDK9/cyclin K; 10 μM", "result": 101, "unit": "%"}, {"measurement": "inhibition at 0.2 µM", "setting": "CDK18/cyclin Y; 200 nM", "result": 37, "unit": "%"}, {"measurement": "inhibition at 10 µM", "setting": "CDK18/cyclin Y; 10 μM", "result": 98, "unit": "%"}, {"measurement": "inhibition at 0.2 µM", "setting": "CDK5 (Inactive); 200 nM", "result": 7, "unit": "%"}, {"measurement": "inhibition at 10 µM", "setting": "CDK5 (Inactive); 10 μM", "result": 70, "unit": "%"}, {"measurement": "inhibition at 0.2 µM", "setting": "CDK1/cyclin B; 200 nM", "result": 34, "unit": "%"}, {"measurement": "inhibition at 10 µM", "setting": "CDK1/cyclin B; 10 μM", "result": 97, "unit": "%"}, {"measurement": "inhibition at 0.2 µM", "setting": "CDK9/cyclin T1; 200 nM", "result": 82, "unit": "%"}, {"measurement": "inhibition at 10 µM", "setting": "CDK9/cyclin T1; 10 μM", "result": 98, "unit": "%"}, {"measurement": "inhibition at 0.2 µM", "setting": "CDK4/cyclin D3; 200 nM", "result": -3, "unit": "%"}, {"measurement": "inhibition at 10 µM", "setting": "CDK4/cyclin D3; 10 μM", "result": 23, "unit": "%"}, {"measurement": "inhibition at 0.2 µM", "setting": "CDK17/cyclin Y; 200 nM", "result": 25, "unit": "%"}, {"measurement": "inhibition at 10 µM", "setting": "CDK17/cyclin Y; 10 μM", "result": 94, "unit": "%"}, {"measurement": "inhibition at 0.2 µM", "setting": "CDK2/cyclin E1; 200 nM", "result": 5, "unit": "%"}, {"measurement": "inhibition at 10 µM", "setting": "CDK2/cyclin E1; 10 μM", "result": 70, "unit": "%"}, {"measurement": "inhibition at 0.2 µM", "setting": "CDK5/p35; 200 nM", "result": 7, "unit": "%"}, {"measurement": "inhibition at 10 µM", "setting": "CDK5/p35; 10 μM", "result": 90, "unit": "%"}, {"measurement": "inhibition at 0.2 µM", "setting": "CDK5/p25; 200 nM", "result": 2, "unit": "%"}, {"measurement": "inhibition at 10 µM", "setting": "CDK5/p25; 10 μM", "result": 89, "unit": "%"}, {"measurement": "inhibition at 0.2 µM", "setting": "CDK7/cyclin H/MNAT1; 200 nM", "result": 9, "unit": "%"}, {"measurement": "inhibition at 10 µM", "setting": "CDK7/cyclin H/MNAT1; 10 μM", "result": 54, "unit": "%"}, {"measurement": "inhibition at 0.2 µM", "setting": "CDK6/cyclin D1; 200 nM", "result": -12, "unit": "%"}, {"measurement": "inhibition at 10 µM", "setting": "CDK6/cyclin D1; 10 μM", "result": 23, "unit": "%"}, {"measurement": "inhibition at 0.2 µM", "setting": "CDK14 (PFTK1)/cyclin Y; 200 nM", "result": 23, "unit": "%"}, {"measurement": "inhibition at 10 µM", "setting": "CDK14 (PFTK1)/cyclin Y; 10 μM", "result": 97, "unit": "%"}, {"measurement": "levels of cleaved Parp and cleaved Caspase 3", "setting": "[1]; 30 nM to 3 mM, 48 hr", "result": "dose-dependent upregulation"}, {"measurement": "p-levels of STATs, time course", "setting": "[1]; 300 nM, 4 hrs and 24 hrs", "result": "further downregulated in a time-dependent manner"}, {"measurement": "p-STAT1 (S727), p-STAT3(S727), p-STAT5(S726) levels", "setting": "[1]; 2-hrs, various concentrations", "result": "dose-dependent inhibitions"}, {"measurement": "MCL-1 level", "setting": "[1]; 2 hrs", "result": "downregulated"}, {"measurement": "expression of BCL-2", "setting": "[1]; 48 hr", "result": "unexpected upregulation"}, {"measurement": "targeted p-STATs and MCL-1 levels", "setting": "[1]; 48 hr", "result": "dose-dependent inhibition"}, {"measurement": "expression levels of p-STAT1 (S727), p-STAT3(S727), p-STAT5(S726) in tumors", "setting": "[2]", "result": "further downregulated"}, {"measurement": "cytochrome P450 inhibition", "setting": "CYR2C8", "result": "no inhibition"}, {"measurement": "cytochrome P450 inhibition", "setting": "CYP3A4-TS", "result": "no inhibition"}]}
